From patent US20250171438A1 (Agios Pharmaceuticals, Inc., priority 2022, published 2025)

Target: T1, human PAH with the R408W mutation (Homo sapiens, UniProt P00439, R408W)
T1 construct: expressed in transfected cells
T1 sequence (P00439 1-452 R408W): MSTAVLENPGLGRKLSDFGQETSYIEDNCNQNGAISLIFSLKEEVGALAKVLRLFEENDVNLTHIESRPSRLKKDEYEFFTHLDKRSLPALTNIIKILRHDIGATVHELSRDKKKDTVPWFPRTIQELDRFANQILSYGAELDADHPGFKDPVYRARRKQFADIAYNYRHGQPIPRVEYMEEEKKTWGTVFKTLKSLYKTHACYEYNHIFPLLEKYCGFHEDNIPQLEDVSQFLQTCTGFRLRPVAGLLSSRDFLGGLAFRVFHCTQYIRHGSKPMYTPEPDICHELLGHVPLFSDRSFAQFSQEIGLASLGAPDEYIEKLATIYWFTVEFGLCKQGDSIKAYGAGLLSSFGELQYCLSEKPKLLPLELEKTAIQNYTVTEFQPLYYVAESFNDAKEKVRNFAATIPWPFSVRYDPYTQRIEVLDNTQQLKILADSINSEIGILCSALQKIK
Assay: Cell Based Phenylalanine Flux Assay
Conditions: A375 cells expressing human R408W PAH; 24 hrs compound incubation; 13C-Tyrosine by LC-MS; average where tested multiple times; read-out: AC50

AC50 [µM] | Compound
> 5 | O=C(Cc1nc(C(F)(F)F)cs1)N1CCc2[nH]cnc2[C@@H]1c1nc2ccccc2s1 [Example 1034, (R)-1-(4-(benzo[d]thiazol-2-yl)-6,7-dihydro-1H-imidazo[4,5-c]pyridin-5(4H)-yl)-2-(4-(trifluoromethyl)thiazol-2-yl)ethenone]
0.5 to 1 | O=C(CCc1nccs1)N1CCc2[nH]cnc2[C@H]1c1nc2cccc(F)c2s1 [Example 1035, (S)-1-(4-(7-fluorobenzo[d]thiazol-2-yl)-6,7-dihydro-1H-imidazo[4,5-c]pyridin-5(4H)-yl)-3-(thiazol-2-yl)propan-1-one]
1 to 5 | O=C(CCc1nccs1)N1CCc2[nH]cnc2[C@@H]1c1nc2cccc(F)c2s1 [Example 1036, (R)-1-(4-(7-fluorobenzo[d]thiazol-2-yl)-6,7-dihydro-1H-imidazo[4,5-c]pyridin-5(4H)-yl)-3-(thiazol-2-yl)propan-1-one]
0.5 to 1 | O=C(Cc1nccs1)N1CCc2[nH]cnc2[C@H]1c1nc2ccccc2s1 [Example 1037]
> 5 | O=C(Cc1nccs1)N1CCc2[nH]cnc2[C@@H]1c1nc2ccccc2s1 [Example 1038, (R)-1-(4-(benzo[d]thiazol-2-yl)-6,7-dihydro-1H-imidazo[4,5-c]pyridin-5(4H)-yl)-2-(thiazol-2-yl)ethenone]
0.5 to 1 | O=C(c1cnn2cc(F)ccc12)N1CCc2[nH]cnc2[C@H]1c1nc2ccccc2s1 [Example 1039]
> 5 | O=C(c1cnn2cc(F)ccc12)N1CCc2[nH]cnc2[C@@H]1c1nc2ccccc2s1 [Example 1040, (R)-(4-(benzo[d]thiazol-2-yl)-6,7-dihydro-1H-imidazo[4,5-c]pyridin-5(4H)-yl)(6-fluoropyrazolo[1,5-a]pyridin-3-yl)methanone]
1 to 5 | Cc1nnc(C(=O)N2CCc3[nH]cnc3[C@H]2c2nc3ccccc3s2)s1 [Example 1041]
> 5 | Cc1nnc(C(=O)N2CCc3[nH]cnc3[C@@H]2c2nc3ccccc3s2)s1 [Example 1042, (R)-(4-(benzo[d]thiazol-2-yl)-6,7-dihydro-1H-imidazo[4,5-c]pyridin-5(4H)-yl)(5-methyl-1,3,4-thiadiazol-2-yl)methanone]
> 5 | Cc1csc(C(=O)N2CCc3[nH]cnc3[C@@H]2c2nc3ccccc3s2)n1 [Example 1043, (R)-(4-(benzo[d]thiazol-2-yl)-6,7-dihydro-1H-imidazo[4,5-c]pyridin-5(4H)-yl)(4-methylthiazol-2-yl)methanone]
1 to 5 | Cc1csc(C(=O)N2CCc3[nH]cnc3[C@H]2c2nc3ccccc3s2)n1 [Example 1044]
< 0.5 | O=C(c1cnn2ccc(Br)cc12)N1CCc2[nH]cnc2[C@H]1c1nc2ccccc2s1 [Example 1047]
1 to 5 | O=C(c1cnn2ccc(Br)cc12)N1CCc2[nH]cnc2[C@@H]1c1nc2ccccc2s1 [Example 1048, (R)-(4-(benzo[d]thiazol-2-yl)-6,7-dihydro-1H-imidazo[4,5-c]pyridin-5(4H)-yl)(5-bromopyrazolo[1,5-a]pyridin-3-yl)methanone]
0.5 to 1 | O=C(c1n[nH]c2ccccc12)N1CCc2[nH]cnc2[C@H]1c1nc2ccccc2s1 [Example 1049]
> 5 | O=C(c1n[nH]c2ccccc12)N1CCc2[nH]cnc2[C@@H]1c1nc2ccccc2s1 [Example 1050, (R)-(4-(benzo[d]thiazol-2-yl)-6,7-dihydro-1H-imidazo[4,5-c]pyridin-5(4H)-yl)(1H-indazol-3-yl)methanone]
0.5 to 1 | O=C(c1ccns1)N1CCc2[nH]cnc2[C@H]1c1nc2ccccc2s1 [Example 1051]
> 5 | O=C(c1ccns1)N1CCc2[nH]cnc2[C@@H]1c1nc2ccccc2s1 [Example 1052, (R)-(4-(benzo[d]thiazol-2-yl)-6,7-dihydro-1H-imidazo[4,5-c]pyridin-5(4H)-yl)(isothiazol-5-yl)methanone]
0.5 to 1 | O=C(c1ncc(Cl)s1)N1CCc2[nH]cnc2[C@H]1c1nc2ccccc2s1 [Example 1053]

AC50 [µM] | Compound
1 to 5 | O=C(c1ncc(Cl)s1)N1CCc2[nH]cnc2[C@@H]1c1nc2ccccc2s1 [Example 1054, (R)-(4-(benzo[d]thiazol-2-yl)-6,7-dihydro-1H-imidazo[4,5-c]pyridin-5(4H)-yl)(5-chlorothiazol-2-yl)methanone]
0.5 to 1 | Cc1cnc(C(=O)N2CCc3[nH]cnc3[C@H]2c2nc3ccccc3s2)s1 [Example 1055]
> 5 | Cc1cnc(C(=O)N2CCc3[nH]cnc3[C@@H]2c2nc3ccccc3s2)s1 [Example 1056, (R)-(4-(benzo[d]thiazol-2-yl)-6,7-dihydro-1H-imidazo[4,5-c]pyridin-5(4H)-yl)(5-methylthiazol-2-yl)methanone]
0.5 to 1 | O=C(c1nc(Cl)cs1)N1CCc2[nH]cnc2[C@H]1c1nc2ccccc2s1 [Example 1057]
1 to 5 | O=C(c1nc(Cl)cs1)N1CCc2[nH]cnc2[C@@H]1c1nc2ccccc2s1 [Example 1058, (R)-(4-(benzo[d]thiazol-2-yl)-6,7-dihydro-1H-imidazo[4,5-c]pyridin-5(4H)-yl)(4-chlorothiazol-2-yl)methanone]
< 0.5 | O=C(c1cncs1)N1CCc2[nH]cnc2[C@H]1c1nc2ccccc2s1 [Example 1059]
> 5 | O=C(c1cncs1)N1CCc2[nH]cnc2[C@@H]1c1nc2ccccc2s1 [Example 1060, (R)-(4-(benzo[d]thiazol-2-yl)-6,7-dihydro-1H-imidazo[4,5-c]pyridin-5(4H)-yl)(thiazol-5-yl)methanone]
0.5 to 1 | O=C(c1cnsc1)N1CCc2[nH]cnc2[C@H]1c1nc2ccccc2s1 [Example 1061]
> 5 | O=C(c1cnsc1)N1CCc2[nH]cnc2[C@@H]1c1nc2ccccc2s1 [Example 1062, (R)-(4-(benzo[d]thiazol-2-yl)-6,7-dihydro-1H-imidazo[4,5-c]pyridin-5(4H)-yl)(isothiazol-4-yl)methanone]
< 0.5 | O=C(c1cnn2cc(Cl)ccc12)N1CCc2[nH]cnc2[C@H]1c1nc2ccccc2s1 [Example 1063]
> 5 | O=C(c1cnn2cc(Cl)ccc12)N1CCc2[nH]cnc2[C@@H]1c1nc2ccccc2s1 [Example 1064, (R)-(4-(benzo[d]thiazol-2-yl)-6,7-dihydro-1H-imidazo[4,5-c]pyridin-5(4H)-yl)(6-chloropyrazolo[1,5-a]pyridin-3-yl)methanone]
< 0.5 | O=C(c1ccccc1)N1CCc2[nH]cnc2[C@H]1c1nc2ccccc2s1 [Example 1065]
> 5 | O=C(c1nncs1)N1CCc2[nH]cnc2[C@@H]1c1nc2ccccc2s1 [Example 1067, (R)-(4-(benzo[d]thiazol-2-yl)-6,7-dihydro-1H-imidazo[4,5-c]pyridin-5(4H)-yl)(1,3,4-thiadiazol-2-yl)methanone]
0.5 to 1 | O=C(c1nncs1)N1CCc2[nH]cnc2[C@H]1c1nc2ccccc2s1 [Example 1068]
0.5 to 1 | O=C(c1cnn2c(Br)cccc12)N1CCc2[nH]cnc2[C@H]1c1nc2ccccc2s1 [Example 1069]
1 to 5 | O=C(c1cnn2c(Br)cccc12)N1CCc2[nH]cnc2[C@@H]1c1nc2ccccc2s1 [Example 1070, (R)-(4-(benzo[d]thiazol-2-yl)-6,7-dihydro-1H-imidazo[4,5-c]pyridin-5(4H)-yl)(7-bromopyrazolo[1,5-a]pyridin-3-yl)methanone]
< 0.5 | O=C(CC1CC1)N1CCc2[nH]cnc2[C@H]1c1nc2ccccc2s1 [Example 1071]
